These results are taken from patent US6916852B2, “Method for regulation of microvascular tone” (University of Tennessee Research Foundation, priority 2003, dated 2005).

Series [1] relates to cremaster arterioles. Kind of series: Intravital microscopy of cremaster muscle arterioles. The class given is in vivo, C57-BL mice. The procedure:
Male C57-BL mice age 7-8 weeks and weighing approximately 20 grams are anesthetized with an intramuscular injection of 100 to 150 microliters of a mixture of ketamine and xylazine (87 mg ketamine and 13 mg xylazine per ml) based on the weight of the individual animal. The body temperature was maintained at about 37° C. by convective heating. The animal is supinated, a midline incision is made in the ventrocervical region, and the underlying tissues are bisected laterally to expose the trachea. A tracheotomy is performed and the animal is intubated directly with PE50 tubing to facilitate ventilation. The wound is then closed.
The left rear limb is incised to expose the femoral neurovascular bundle and the femoral vein is isolated and catheterized with PE10 tubing attached to a syringe containing normal saline. The animal is then placed on a specially designed surgery board and the right testicle within the scrotum is oriented over a translumination observation window contained in the surgery board. The scrotum is irrigated with warmed (about 37° C.) physiological saline (4.3 mM NaHCO3, 126.4 mM NaCl, 0.9 mM KCl, 0.4 mM CaCl2, 0.2 mM MgSO4). The scrotum is incised medially and the underlying fascia is bluntly dissected to expose the testicle. The apical portion of the cremaster muscle is pinned distally on the surgery board and the cremaster muscle is incised along its long axis to expose the testicle. The testicle is then gently forced back into the inguinal canal, allowing the cremaster muscle to be pinned evenly around the translumination window.
All experiments are carried out using an industrial grade microscope (Nikon MM-11) with two light sources, bright field (OptiQuip 75 W xenon) and fluorescent (Nikon 150 W mercury). The primary camera assembly has a chilled charged coupled device (CCD) and controller (Hamamastu C5985). The secondary camera assembly has a CCD camera (MTI CCD72) in conjunction with an intensifier (MTI […]). Experiments are viewed on a video monitor and recorded on a digital video recorder for off-line processing.
The prepared animal, as described above in Examples 1 and 2, is placed on the stage of the microscope on the surgery board with the translumination window. Exposed tissues are irrigated with warmed physiological saline through which a N2/CO2 (95%/5%) mixture is bubbled. The tissue is allowed to equilibrate until normal blood flow is observed or perfusate flow stabilizes, during which time the tissue is scanned at 1-X for A1-A4 arterioles. The arterioles are then tested for physiological tone by the topical administration of 0.1 mM adenosine (positive control).
(§1) After the arteriole returns to resting diameter (about 10 minutes) the tissue is treated topically with test chemical drugs or the drugs are administered systemically and the responses of the arterioles are viewed at 20× magnification. Topical treatment is by directly applying a vehicle solution (1:1:18 stepantex:ethanol:saline) or a drug plus vehicle solution. Systemic treatments in the whole animal are administered through the femoral vein catheter. The arteriole is video recorded during the entire procedure for off-line analysis. The blood pressure is monitored throughout the procedure utilizing a 1.4 F (0.56 mm) Millar catheter pressure transducer inserted into the left ventricle via the aorta. Systolic and diastolic blood pressure, and heart rate are recorded. Drug dosing regimens for the animals are based on literature values or values experimentally determined via drug titration curves on a mg/kg basis.
The video images of Example 3 are analyzed off-line by first converting the digital AVI files into digital image files followed by analysis using MetaMorph software (Universal Imaging Co.) on a Dell Optiplex GX-1. Calibration of the software is done using a micrometer slide and measurements are defined in micrometers/pixel. […]

In series [2] the test system is cannabinoid receptors. Conditions: cited from earlier work; for effect on blood pressure, intra-arterially administered (Adams): intra-arterial; for effect on blood pressure, intravenously administered (Adams): intravenous.
For series [3] the following is noted: cited from earlier work; for changes in blood pressure or renal function (Dilger): therapeutic doses for 15 days, healthy young or elderly subjects.
The subject of series [4] is mesenteric arterioles. Kind of series: Intravital microscopy of mesenteric arterioles. It is filed as in vivo, C57-BL mice. Conditions: topical. On the procedure:
Animals as described in Example 1 are prepared for surgery as described in Example 1. The animal is supinated on the surgery board so that the ventral portion of the animal faces the observation window. Upon irrigation with warmed physiological saline, a midline incision is made through the linea alba. A loop of small intestine from the lower duodenal segment is extracted and pinned around the observation window, with the pins passing through the proximal mesentery and not through the intestine proper.
All experiments are carried out using an industrial grade microscope (Nikon MM-11) with two light sources, bright field (OptiQuip 75 W xenon) and fluorescent (Nikon 150 W mercury). The primary camera assembly has a chilled charged coupled device (CCD) and controller (Hamamastu C5985). The secondary camera assembly has a CCD camera (MTI CCD72) in conjunction with an intensifier (MTI […]). Experiments are viewed on a video monitor and recorded on a digital video recorder for off-line processing. […]
as §1, with “Topical treatment is by directly applying a vehicle solution (1:1:18 stepantex:ethanol:saline) or a drug plus vehicle solution. Systemic treatments in the whole animal are administered through the femoral vein catheter.” left out
The video images of Example 3 are analyzed off-line by first converting the digital AVI files into digital image files followed by analysis using MetaMorph software (Universal Imaging Co.) on a Dell Optiplex GX-1. […]
Data analysis is carried out using GraphPad, Prism software. […] Time course curves are fit using non-linear regression from which the rate of vessel constriction or dilation is calculated. […]

The conditions of series [5]: rats subsequently bled; doubled from about 30 minutes; cited from earlier work.
Setting [6] is: systemically administered, 2 mg/kg NS-398.

Like-named read-outs stand apart in the source and are kept apart here.

As for `CCCCC/C=C\C/C=C\C/C=C\C/C=C\CCCC(=O)NCCO` [ANA, arachidonyl ethanolamide], the “change in cremaster arteriolar diameter (FIG. 5B)” value in series [1] (systemically administered, by about 200 seconds post-administration) is recorded as “causes a dilatation of cremaster arterioles”. Moreover, the “change in cremaster arteriolar diameter (FIG. 5A)” value in series [1] (topically administered, by about 200 seconds post-administration) was “causes a dilatation of cremaster arterioles”. Moreover, the “effect on blood pressure (Kunos, U.S. Pat. No. 5,939,429)” value in series [2] (in vivo) is on record as “causes hypotension”.

For the compound `Nc1ncnc2c1ncn2[C@@H]1O[C@H](CO)[C@@H](O)[C@H]1O` [adenosine], the “change in arteriole diameter (FIG. 1B)” value in series [1] (topical administration of adenosine, cremaster arteriole) is reported as “Dilation of the arteriole”.

As for `CS(=O)(=O)c1ccc(C2=C(c3ccccc3)C(=O)OC2)cc1` [rofecoxib], the “effect on blood pressure (Johnson)” value in series [3] (in vivo) is on record as “found to elevate blood pressure”.

As to `O=C(O)Cc1ccccc1Nc1c(Cl)cccc1Cl` [diclofenac], the “changes in blood pressure or renal function (Dilger)” value in series [3] is “not associated with significant changes in blood pressure or renal function”.

In the case of `CCCCCc1cc(O)c2c(c1)OC(C)(C)[C@@H]1CC=C(C)C[C@@H]21` [THC, Δ^8-tetrahydrocannabinol], the “time post-administration of return to baseline diameter (FIG. 3B)” value in series [1] (systemic, 12 mg/kg THC alone) was “about 30 seconds”. For the same compound, in series [1] (systemic, initial 100 seconds), the “initial mild constriction of arterioles (FIG. 3B)” value was “about 15%”. In addition, in series [1] (topical), the “response of cremaster arterioles to topical application (FIG. 3A)” value is “mirrors that of the response to systemic administration of THC”. In addition, in series [2], the “effect on blood pressure, intra-arterially administered (Adams)” value is listed as “produced an increase in blood pressure indicative of vasoconstriction”; the “effect on blood pressure, intravenously administered (Adams)” value is “transient increase in blood pressure that lasted only about one minute and that was followed by a more prolonged hypotensive response”. Also, the “effect on blood pressure, intravenously administered (Adams)” value in series [2] (listed as Δ^8-tetrahydrocannabinol) is listed as “caused decreases in blood pressure”. For the same compound, in series [4], the “duration of initial brief constriction (FIG. 4)” value is on record as “less than 5 seconds”, the “response of mesenteric arterioles (FIG. 4)” value is given as “biphasic response” and the “time post administration of return to baseline (FIG. 4)” value was “about 100 seconds”. In addition, in series [5], the “survival time (Wagner)” value is approximately 60 min.

In the case of `CS(=O)(=O)Nc1ccc([N+](=O)[O-])cc1OC1CCCCC1` [NS-398, N-(2-cyclohexyloxy-4-nitrophenyl) methane sulphonamide], in series [1] (setting [6]), the “initial increase in arteriolar diameter (FIG. 2)” value is approximately 8% and the “time to return to baseline diameter (FIG. 2)” value was not above 3 min.

Consider `Cc1ccc(-c2cc(C(F)(F)F)nn2-c2ccc(S(N)(=O)=O)cc2)cc1` [celecoxib], for which the “effect on blood pressure (Johnson)” value in series [3] (patients, administered for six weeks) was “inconclusive”. Also, the “changes in blood pressure or renal function (Dilger)” value in series [3] is given as “not associated with significant changes in blood pressure or renal function”.

In the case of `CCCCCCC(C)(C)c1cc(O)c2c(c1)OC(C)(C)[C@@H]1CC=C(CO)C[C@@H]21` [HU-210], the “survival time (Wagner)” value in series [5] is approximately 60 min.

With `CCCCCc1cc(O)c2c(c1)OC(C)(C)[C@@H]1CCC(C)=C[C@@H]21` [Δ^9-tetrahydrocannabinol], in series [2], the “effect on blood pressure, intra-arterially administered (Adams)” value is reported as “produced an increase in blood pressure indicative of vasoconstriction” and the “effect on blood pressure, intravenously administered (Adams)” value is given as “caused decreases in blood pressure”.
